Laboratory results reported in ChEMBL document CHEMBL2073850, “Human organic anion transporters and human organic cation transporters mediate renal transport of prostaglandins” (J Pharmacol Exp Ther, 2002).

Assays:
Format in all cases: functional, cell-based
Parameters in all cases: scale not given: the % may be the effect or the level left
[1] = target: T1, OAT2 (Solute carrier family 22 member 7) (Homo sapiens, UniProt Q9Y694); test: TP_TRANSPORTER: inhibition of PGF2alpha uptake (PGF2alpha: 0.05 uM, PGE2: 30 uM) in OAT2-expressing S2 cells; conditions: mouse, probe PGF2alpha, read-out: Activity
T1 sequence (Q9Y694 whole entry): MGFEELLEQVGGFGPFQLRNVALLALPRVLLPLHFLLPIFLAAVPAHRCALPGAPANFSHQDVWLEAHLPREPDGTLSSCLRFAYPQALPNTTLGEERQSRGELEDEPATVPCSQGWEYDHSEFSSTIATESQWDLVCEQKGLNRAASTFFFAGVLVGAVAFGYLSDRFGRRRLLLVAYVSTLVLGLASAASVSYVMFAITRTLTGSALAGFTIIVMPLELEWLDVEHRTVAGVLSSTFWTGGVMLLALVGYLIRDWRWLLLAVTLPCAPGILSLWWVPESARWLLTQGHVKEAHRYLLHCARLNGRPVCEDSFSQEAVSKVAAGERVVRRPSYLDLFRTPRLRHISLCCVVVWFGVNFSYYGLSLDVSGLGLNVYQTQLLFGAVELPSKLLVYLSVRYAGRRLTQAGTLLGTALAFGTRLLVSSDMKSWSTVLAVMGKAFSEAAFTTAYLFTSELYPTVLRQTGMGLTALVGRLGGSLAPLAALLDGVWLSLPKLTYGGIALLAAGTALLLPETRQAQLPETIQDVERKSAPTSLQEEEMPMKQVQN

[2] = target: T2, Organic anion transporter 3 (Homo sapiens, UniProt Q8TCC7); test: TP_TRANSPORTER: inhibition of ES uptake (ES: 0.05 uM, PGE2: 30 uM) in OAT3-expressing S2 cells; conditions: s2, 30 µM
T2 sequence (Q8TCC7 whole entry): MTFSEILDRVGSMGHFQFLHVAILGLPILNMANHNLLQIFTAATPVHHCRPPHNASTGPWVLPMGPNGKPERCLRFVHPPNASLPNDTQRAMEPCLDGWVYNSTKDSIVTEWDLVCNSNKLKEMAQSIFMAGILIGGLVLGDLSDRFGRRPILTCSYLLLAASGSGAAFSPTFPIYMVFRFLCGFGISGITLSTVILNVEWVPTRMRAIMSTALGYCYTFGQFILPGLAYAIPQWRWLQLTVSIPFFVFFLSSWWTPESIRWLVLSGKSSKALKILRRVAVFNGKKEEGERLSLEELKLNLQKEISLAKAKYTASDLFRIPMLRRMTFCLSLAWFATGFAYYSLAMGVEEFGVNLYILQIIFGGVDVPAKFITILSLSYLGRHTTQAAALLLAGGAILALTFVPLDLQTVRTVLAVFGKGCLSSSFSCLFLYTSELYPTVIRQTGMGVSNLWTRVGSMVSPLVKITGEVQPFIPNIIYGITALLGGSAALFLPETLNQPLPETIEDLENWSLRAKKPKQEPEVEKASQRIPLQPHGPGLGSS

[3] = target: T3, OCT1 (Solute carrier family 22 member 1) (Homo sapiens, UniProt O15245); test: TP_TRANSPORTER: inhibition of TEA uptake (TEA: 5 uM, PGE2: 1000 uM) in OCT1-expressing S2 cells; conditions: probe TEA, read-out: Activity
T3 sequence (O15245 whole entry): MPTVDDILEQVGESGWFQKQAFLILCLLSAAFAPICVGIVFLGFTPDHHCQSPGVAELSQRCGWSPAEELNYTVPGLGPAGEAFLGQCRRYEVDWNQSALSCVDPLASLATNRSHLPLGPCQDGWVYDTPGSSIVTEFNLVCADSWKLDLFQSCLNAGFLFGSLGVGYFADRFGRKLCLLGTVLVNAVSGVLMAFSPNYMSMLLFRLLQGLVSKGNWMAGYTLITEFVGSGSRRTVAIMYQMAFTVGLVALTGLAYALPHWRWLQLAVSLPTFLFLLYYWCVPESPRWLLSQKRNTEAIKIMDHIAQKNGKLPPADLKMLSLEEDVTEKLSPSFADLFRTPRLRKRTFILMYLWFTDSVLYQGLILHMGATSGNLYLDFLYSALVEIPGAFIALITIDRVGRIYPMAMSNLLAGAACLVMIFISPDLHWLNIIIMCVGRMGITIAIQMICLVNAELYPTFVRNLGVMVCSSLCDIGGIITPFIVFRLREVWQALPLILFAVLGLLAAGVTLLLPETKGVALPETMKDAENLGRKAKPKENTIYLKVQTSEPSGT

[4] = target: T4, OAT4 (Solute carrier family 22 member 11) (Homo sapiens, UniProt Q9NSA0); test: TP_TRANSPORTER: inhibition of ES uptake (ES: 0.05 uM, PGE2: 30 uM) in OAT4-expressing S2 cells; conditions: probe ES, read-out: Activity
T4 sequence (Q9NSA0 whole entry): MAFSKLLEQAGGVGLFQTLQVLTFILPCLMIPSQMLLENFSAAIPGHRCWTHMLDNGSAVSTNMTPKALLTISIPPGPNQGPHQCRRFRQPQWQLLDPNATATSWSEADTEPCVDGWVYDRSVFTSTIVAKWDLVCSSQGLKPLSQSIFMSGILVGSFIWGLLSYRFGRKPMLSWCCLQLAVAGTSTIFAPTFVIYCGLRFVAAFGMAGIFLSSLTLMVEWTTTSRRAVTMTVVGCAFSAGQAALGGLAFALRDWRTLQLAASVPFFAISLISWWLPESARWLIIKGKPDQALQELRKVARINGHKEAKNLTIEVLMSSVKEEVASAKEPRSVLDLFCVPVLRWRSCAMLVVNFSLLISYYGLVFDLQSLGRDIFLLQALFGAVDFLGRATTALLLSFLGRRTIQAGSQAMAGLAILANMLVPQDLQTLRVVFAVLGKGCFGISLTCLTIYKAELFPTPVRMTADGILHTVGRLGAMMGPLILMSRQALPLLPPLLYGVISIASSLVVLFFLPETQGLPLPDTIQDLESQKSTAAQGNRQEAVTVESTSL

[5] = target: T5, OCT2 (Solute carrier family 22 member 2) (Homo sapiens, UniProt O15244); test: TP_TRANSPORTER: inhibition of TEA uptake (TEA: 5 uM, PGE2: 1000 uM) in OCT2-expressing S2 cells; conditions: mouse, probe TEA, read-out: Activity
T5 sequence (O15244 whole entry): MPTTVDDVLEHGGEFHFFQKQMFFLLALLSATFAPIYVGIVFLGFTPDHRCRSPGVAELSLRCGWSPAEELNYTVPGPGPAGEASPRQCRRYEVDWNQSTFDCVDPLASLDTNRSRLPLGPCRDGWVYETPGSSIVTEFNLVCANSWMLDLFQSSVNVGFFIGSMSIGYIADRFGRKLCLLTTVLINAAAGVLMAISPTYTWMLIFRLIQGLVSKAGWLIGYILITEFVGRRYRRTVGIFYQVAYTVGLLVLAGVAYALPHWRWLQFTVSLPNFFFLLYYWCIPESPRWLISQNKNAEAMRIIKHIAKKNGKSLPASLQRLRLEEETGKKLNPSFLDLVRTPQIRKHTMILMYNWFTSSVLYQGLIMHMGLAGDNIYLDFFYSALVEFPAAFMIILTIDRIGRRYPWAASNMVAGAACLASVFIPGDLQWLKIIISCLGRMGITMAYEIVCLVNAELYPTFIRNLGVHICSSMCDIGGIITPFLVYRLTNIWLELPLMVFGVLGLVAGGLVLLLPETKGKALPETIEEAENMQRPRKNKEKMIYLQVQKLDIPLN

[6] = target: T6, OAT1 (Solute carrier family 22 member 6) (Homo sapiens, UniProt Q4U2R8); test: TP_TRANSPORTER: inhibition of PAH uptake (PAH: 5 uM, PGF2alpha: 1000 uM) in OAT1-expressing S2 cells; conditions: mouse, probe PAH, read-out: Activity
T6 sequence (Q4U2R8 whole entry): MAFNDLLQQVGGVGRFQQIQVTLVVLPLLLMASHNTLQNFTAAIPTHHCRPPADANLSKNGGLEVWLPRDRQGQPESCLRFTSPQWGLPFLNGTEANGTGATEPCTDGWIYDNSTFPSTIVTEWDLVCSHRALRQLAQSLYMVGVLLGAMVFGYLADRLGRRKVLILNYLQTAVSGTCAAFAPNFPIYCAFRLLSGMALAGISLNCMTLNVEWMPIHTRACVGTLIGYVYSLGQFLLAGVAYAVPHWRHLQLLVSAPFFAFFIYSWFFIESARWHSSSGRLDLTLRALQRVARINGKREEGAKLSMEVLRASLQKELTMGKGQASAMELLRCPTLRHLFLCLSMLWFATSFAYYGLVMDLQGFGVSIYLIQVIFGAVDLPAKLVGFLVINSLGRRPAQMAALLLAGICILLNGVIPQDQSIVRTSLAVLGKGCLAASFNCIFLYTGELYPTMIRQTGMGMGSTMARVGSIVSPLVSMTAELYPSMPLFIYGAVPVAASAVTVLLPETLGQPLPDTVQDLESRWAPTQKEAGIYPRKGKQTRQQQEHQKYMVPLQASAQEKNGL

[7] = target: T7, Solute carrier family 22 member 1 (Homo sapiens, UniProt O15245); test: TP_TRANSPORTER: inhibition of TEA uptake (TEA: 5 uM, PGF2alpha: 1000 uM) in OCT1-expressing S2 cells; conditions: mouse, s2, 1000 µM
T7 sequence (O15245 whole entry): T3 sequence (O15245 whole entry)

[8] = target: T4, OAT4 (Solute carrier family 22 member 11); test: TP_TRANSPORTER: inhibition of ES uptake (ES: 0.05 uM, PGF2alpha: 30 uM) in OAT4-expressing S2 cells; conditions: mouse, probe ES, read-out: Activity
[9] = target: T5, OCT2 (Solute carrier family 22 member 2); test: TP_TRANSPORTER: inhibition of TEA uptake (TEA: 5 uM, PGF2alpha: 1000 uM) in OCT2-expressing S2 cells; conditions: mouse, probe TEA, read-out: Activity
[10] = target: T8, OAT3 (Organic anion transporter 3) (Homo sapiens, UniProt Q8TCC7); test: TP_TRANSPORTER: inhibition of ES uptake (ES: 0.05 uM, PGF2alpha: 30 uM) in OAT3-expressing S2 cells; conditions: probe ES, read-out: Activity
T8 sequence (Q8TCC7 whole entry): T2 sequence (Q8TCC7 whole entry)

| Structure (SMILES) | activity at 30 µM [1] [%] | Activity [2] [%] | activity at 1000 µM [3] [%] | activity at 30 µM [4] [%] | activity at 1000 µM [5] [%] | activity at 1000 µM [6] [%] | Activity [7] [%] | activity at 30 µM [8] [%] | activity at 1000 µM [9] [%] | activity at 30 µM [10] [%] |
| --- | --- | --- | --- | --- | --- | --- | --- | --- | --- | --- |
| CCCCC[C@H](O)/C=C/[C@H]1[C@H](O)CC(=O)[C@@H]1C/C=C\CCCC(=O)O [DINOPROSTONE] | 21.2 | 21.8 | 31.4 | 57 | 75.6 |  |  |  |  |  |
| CCCCC[C@H](O)/C=C/[C@@H]1[C@@H](C/C=C\CCCC(=O)O)[C@@H](O)C[C@H]1O [DINOPROST] |  |  |  |  |  | 17.7 | 68.9 | 40.8 | 70.7 | 26.8 |
